Data on 43 compounds can be found in patent US11584748B2, “Spirocyclic compounds” (priority 2018, dated 2023).

pKd: −log10 of the molar value.

The target in the experiment is hCereblon(M1-L442)_hDDB1(M1-H1140) (Homo sapiens (Human), UniProt Q96SW2). Description: Fluorescence direct binding (tryptophan fluorescence titration). As to conditions: 20° C., excitation 280 nm, emission 340 nm, 50 mM Hepes 7.4 200 mM NaCl; read-out: Fluorescence h-Cereblon_DDB1 Mean Kd_EQ.
hCereblon(M1-L442)_hDDB1(M1-H1140), sequence (Q96SW2 whole entry, looked up): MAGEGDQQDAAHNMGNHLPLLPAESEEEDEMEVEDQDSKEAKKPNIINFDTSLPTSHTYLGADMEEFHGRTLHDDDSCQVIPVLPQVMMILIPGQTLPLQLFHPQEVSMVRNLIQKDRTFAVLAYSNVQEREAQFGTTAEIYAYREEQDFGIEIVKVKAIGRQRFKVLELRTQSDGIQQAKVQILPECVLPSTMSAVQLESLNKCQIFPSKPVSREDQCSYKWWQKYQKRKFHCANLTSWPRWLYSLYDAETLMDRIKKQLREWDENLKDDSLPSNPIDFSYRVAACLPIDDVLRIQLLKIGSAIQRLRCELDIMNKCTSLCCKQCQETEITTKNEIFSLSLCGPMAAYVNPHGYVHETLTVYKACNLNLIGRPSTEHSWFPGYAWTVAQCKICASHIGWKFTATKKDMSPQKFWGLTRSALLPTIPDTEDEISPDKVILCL
hCereblon(M1-L442)_hDDB1(M1-H1140), sequence (Q16531 whole entry partner, looked up): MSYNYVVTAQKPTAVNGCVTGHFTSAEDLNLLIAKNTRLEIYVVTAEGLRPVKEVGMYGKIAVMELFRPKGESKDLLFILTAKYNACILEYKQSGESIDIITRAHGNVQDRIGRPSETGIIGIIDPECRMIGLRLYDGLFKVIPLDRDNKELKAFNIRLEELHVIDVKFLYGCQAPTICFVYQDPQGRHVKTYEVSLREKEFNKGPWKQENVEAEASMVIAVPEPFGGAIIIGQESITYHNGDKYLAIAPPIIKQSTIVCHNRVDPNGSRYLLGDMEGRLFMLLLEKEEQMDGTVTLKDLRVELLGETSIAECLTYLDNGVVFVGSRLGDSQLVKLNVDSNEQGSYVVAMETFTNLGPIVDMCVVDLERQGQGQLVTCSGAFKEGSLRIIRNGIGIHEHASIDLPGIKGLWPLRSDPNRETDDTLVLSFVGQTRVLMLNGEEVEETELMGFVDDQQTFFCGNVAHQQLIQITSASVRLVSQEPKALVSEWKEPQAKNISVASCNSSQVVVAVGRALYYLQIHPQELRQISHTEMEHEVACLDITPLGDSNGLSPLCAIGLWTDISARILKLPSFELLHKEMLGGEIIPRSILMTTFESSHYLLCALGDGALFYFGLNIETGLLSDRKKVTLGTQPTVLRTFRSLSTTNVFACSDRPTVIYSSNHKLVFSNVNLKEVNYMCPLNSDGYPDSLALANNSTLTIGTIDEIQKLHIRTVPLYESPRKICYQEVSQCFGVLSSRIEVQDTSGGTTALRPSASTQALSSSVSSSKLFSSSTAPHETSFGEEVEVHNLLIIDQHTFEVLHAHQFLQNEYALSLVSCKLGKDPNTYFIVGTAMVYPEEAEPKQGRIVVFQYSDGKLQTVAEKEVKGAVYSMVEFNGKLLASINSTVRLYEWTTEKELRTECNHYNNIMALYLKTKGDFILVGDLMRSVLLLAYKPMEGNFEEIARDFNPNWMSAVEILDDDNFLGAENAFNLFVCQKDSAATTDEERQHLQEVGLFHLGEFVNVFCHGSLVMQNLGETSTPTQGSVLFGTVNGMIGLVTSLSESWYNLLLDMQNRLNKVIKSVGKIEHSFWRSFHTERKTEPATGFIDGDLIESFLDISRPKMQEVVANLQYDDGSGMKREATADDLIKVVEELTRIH
Procedure: Fluorescence Direct Binding Protocol
Determination of the affinities of compounds to protein containing one or more tryptophan is measurable by monitoring the fluorescence emission in direct mode. The measurements, depending on the protein available amounts, were performed either manually in a cuvette on ISS-PCI photon counting spectrofluorometer or automatically in well plates on a fluorescence plate reader device. Fluorescence titrations were performed at 20° C. in the chosen binding assay buffer by using a defined constant protein concentration against ligand concentration variations. Small aliquots of known ligand concentration solubilized in DMSO were added and the fluorescence, excited at 280 nm, was recorded at 340 nm.
For `O=C1CCC2(CCN(c3nc4cc([N+](=O)[O-])ccc4[nH]3)C2)C(=O)N1` (single isomer, unassigned) [Example 33, 2-(5-nitro-1H-benzo[d]imidazol-2-yl)-2,7-diazaspiro[4.5] decane-6,8-dione], the pKd is over 9.00.
The result for `O=C1CCC2(CCN(c3nc4cc([N+](=O)[O-])ccc4[nH]3)C2)C(=O)N1` (single isomer, unassigned) [Example 34, 2-(5-nitro-1H-benzo[d]imidazol-2-yl)-2,7-diazaspiro[4.5] decane-6,8-dione] reads 8.30; that for `O=C1CC2(CCN(C(=O)[C@H]3CCCc4ccccc43)CC2)C(=O)N1` (single isomer, unassigned) [Example 77], 8.22; that for `O=C1CC2(CCN(C(=O)[C@@H]3CCCc4ccccc43)CC2)C(=O)N1` (single isomer, unassigned) [Example 78], 8.40.
The result for `Cc1sc2c(c1C)C(c1ccc(Cl)cc1)=NC(CC(=O)NCCCCCCCC(=O)Nc1cccc(C(=O)N3CCC4(CCC(=O)NC4=O)C3)c1)c1nnc(C)n1-2` (stereo in doubt) [Example 57, 8-(2-((R)-4-(4-chlorophenyl)-2,3,9-trimethyl-6H-thieno[3,2-f] [1,2,4]triazolo [4,3-a] [1,4]diazepin-6-yl)acetamido)-N-(3-(6,8-dioxo-2,7-diazaspiro[4.5]decane-2-carbonyl)phenyl) octanamide] reads 6.97; that for `O=C1CCC2(CCNC2)C(=O)N1` (stereo not shown) [Example 1, 2,7-diazaspiro [4.5]decane-6,8-dione], 7.08; that for `CN1CC2(CCC(=O)NC2=O)CC1=O` (stereo not shown) [Example 2, 2-methyl-2,7-diazaspiro[4.5] decane-3,6,8-trione], 6.80.
The result for `COC(=O)c1ccc(N2CCC3(CCC(=O)NC3=O)C2)nc1` (stereo not shown) [Example 6, methyl 6-(6,8-dioxo-2,7-diazaspiro[4.5]decan-2-yl) nicotinate] reads over 9.00; that for `O=C1CCC2(CCN(c3nc4cc([N+](=O)[O-])ccc4[nH]3)C2)C(=O)N1` (stereo not shown) [Example 9, 2-(5-nitro-1H-benzo[d]imidazol-2-yl)-2,7-diazaspiro [4.5]decane-6,8-dione], 8.10; that for `O=C1CCC2(CCN(c3nc4ccccc4s3)C2)C(=O)N1` (stereo not shown) [Example 12, 2-(benzo[d]thiazol-2-yl)-2,7-diazaspiro [4.5]decane-6,8-dione], 9.00.
Regarding `COC(=O)c1cccc2nc(N3CCC4(CCC(=O)NC4=O)C3)[nH]c12` (stereo not shown) [Example 13, methyl 2-(6,8-dioxo-2,7-diazaspiro[4.5]decan-2-yl)-1H-benzo[d]imidazole-7-carboxylate], the pKd is 7.02.
As for `O=C1CCC2(CCN(c3ccc4ccccc4n3)C2)C(=O)N1` (stereo not shown) [Example 15, 2-(quinolin-2-yl)-2,7-diazaspiro[4.5] decane-6,8-dione], the pKd is 8.22.
With `Cn1c(N2CCC3(CCC(=O)NC3=O)C2)nc2ccccc21` (stereo not shown) [Example 19, 2-(1-methyl-1H-benzo[d]imidazol-2-yl)-2,7-diazaspiro[4.5] decane-6,8-dione], the pKd is 7.52.
In the case of `O=C1CCC2(CCN(c3nc4cnccc4s3)C2)C(=O)N1` (stereo not shown) [Example 20, 2-(thiazolo[4,5-c]pyridin-2-yl)-2,7-diazaspiro[4.5] decane-6,8-dione], the pKd is 8.22.
As for `COC(=O)c1ccc2nc(N3CCC4(CCC(=O)NC4=O)C3)sc2c1` (stereo not shown) [Example 21, methyl 2-(6,8-dioxo-2,7-diazaspiro [4.5]decan-2-yl)benzo[d]thiazole-6-carboxylate], the figure is 8.10.
As to `COC(=O)c1csc(N2CCC3(CCC(=O)NC3=O)C2)n1` (stereo not shown) [Example 22, methyl 2-(6,8-dioxo-2,7-diazaspiro[4.5]decan-2-yl)thiazole-4-carboxylate], the pKd was 7.36.
`COC(=O)c1cnc(N2CCC3(CCC(=O)NC3=O)C2)s1` (stereo not shown) [Example 23, methyl 2-(6,8-dioxo-2,7-diazaspiro[4.5]decan-2-yl)thiazole-5-carboxylate]: the pKd is 8.10.
As for `CC(C)(C)OC(=O)c1ccc(N2CCC3(CCC(=O)NC3=O)C2)nc1` (stereo not shown) [Example 24, tert-butyl 6-(6,8-dioxo-2,7-diazaspiro[4.5]decan-2-yl) nicotinate], the figure is 8.70; as for `O=C1CCC2(CCN(C(=O)c3cccc4c3CC(=O)N4)C2)C(=O)N1` (stereo not shown) [Example 27, 2-(2-oxoindoline-4-carbonyl)-2,7-diazaspiro[4.5] decane-6,8-dione], 7.33.
As for `COC(=O)c1ccc(C(=O)N2CCC3(CCC(=O)NC3=O)C2)cc1` (stereo not shown) [Example 28, methyl 4-(6,8-dioxo-2,7-diazaspiro[4.5]decane-2-carbonyl) benzoate], the figure is 7.89.
Consider `O=C1CCC2(CCN(C(=O)c3ccc4scnc4c3)C2)C(=O)N1` (stereo not shown) [Example 29, 2-(benzo[d]thiazole-5-carbonyl)-2,7-diazaspiro[4.5] decane-6,8-dione], for which the pKd is over 9.00.
In the case of `O=C1CCC2(CCN(c3ccc([N+](=O)[O-])cn3)C2)C(=O)N1` (stereo not shown) [Example 30, 2-(5-nitropyridin-2-yl)-2,7-diazaspiro [4.5]decane-6,8-dione], the pKd is 9.00.
The result for `COC(=O)c1cccc(N2CCC3(CCC(=O)NC3=O)C2)n1` (stereo not shown) [Example 32, methyl 6-(6,8-dioxo-2,7diazaspiro[4.5]decan-2-yl)picolinate] reads 9.00.
As for `CC(=O)N1CCc2c(C(=O)N3CCC4(CCC(=O)NC4=O)C3)cccc21` (stereo not shown) [Example 35, 2-(1-acetylindoline-4-carbonyl)-2,7-diazaspiro[4.5] decane-6,8-dione], the figure is over 9.00.
As to `O=C1CCC2(CCN(C(=O)c3ccccc3)C2)C(=O)N1` (stereo not shown) [Example 36, 2-benzoyl-2,7-diazaspiro[4.5] decane-6,8-dione], the pKd was over 9.00.
The result for `CC(=O)Nc1cccc(C(=O)N2CCC3(CCC(=O)NC3=O)C2)c1` (stereo not shown) [Example 37, N-(3-(6,8-dioxo-2,7-diazaspiro[4.5]decane-2-carbonyl)phenyl)acetamide] reads 8.22; that for `O=C1CCC2(CCN(C(=O)c3cccc4[nH]ncc34)C2)C(=O)N1` (stereo not shown) [Example 38, 2-(1H-indazole-4-carbonyl)-2,7-diazaspiro[4.5] decane-6,8-dione], 7.08.
The result for `O=C1CCC2(CCN(C(=O)c3cccc4c3CCN4)C2)C(=O)N1` (stereo not shown) [Example 40, 2-(indoline-4-carbonyl)-2,7-diazaspiro[4.5] decane-6,8-dione] reads 8.22; that for `O=C1CCC2(CCN(C(=O)c3ccc4c(c3)NCC4)C2)C(=O)N1` (stereo not shown) [Example 41, 2-(indoline-6-carbonyl)-2,7-diazaspiro[4.5] decane-6,8-dione], 7.12.
As for `CC(=O)N1CCc2ccc(C(=O)N3CCC4(CCC(=O)NC4=O)C3)cc21` (stereo not shown) [Example 42, 2-(1-acetylindoline-6-carbonyl)-2,7-diazaspiro[4.5] decane-6,8-dione], the figure is 8.10.
As to `O=C1CCC2(CCN(C(=O)c3coc4ccccc34)C2)C(=O)N1` (stereo not shown) [Example 44, 2-(benzofuran-3-carbonyl)-2,7-diazaspiro[4.5] decane-6,8-dione], the pKd is 8.05.
Regarding `O=C1CCC2(CCN(C(=O)c3cnn4ccccc34)C2)C(=O)N1` (stereo not shown) [Example 45, 2-(pyrazolo[1,5-a]pyridine-3-carbonyl)-2,7-diazaspiro[4.5] decane-6,8-dione], the pKd is over 9.00.
As for `O=C1CCC2(CCN(C(=O)c3ccc4ncoc4c3)C2)C(=O)N1` (stereo not shown) [Example 46, 2-(benzo[d]oxazole-6-carbonyl)-2,7-diazaspiro[4.5] decane-6,8-dione], the figure is 8.00; as for `O=C1CCC2(CCN(C(=O)c3ccc4c(c3)CCN4)C2)C(=O)N1` (stereo not shown) [Example 47, 2-(indoline-5-carbonyl)-2,7-diazaspiro[4.5] decane-6,8-dione], 8.40; as for `CC(=O)Nc1nc2cc(C(=O)N3CCC4(CCC(=O)NC4=O)C3)ccc2s1` (stereo not shown) [Example 50, N-(5-(6,8-dioxo-2,7-diazaspiro[4.5]decane-2-carbonyl)benzo[d]thiazol-2-yl)acetamide], 7.35.
Take `CC(=O)Nc1nc2ccc(C(=O)N3CCC4(CCC(=O)NC4=O)C3)cc2s1` (stereo not shown) [Example 51, N-(6-(6,8-dioxo-2,7-diazaspiro[4.5]decane-2-carbonyl)benzo[d]thiazol-2-yl)acetamide]: the pKd was 7.03.
The result for `CC(=O)N1CCc2cc(C(=O)N3CCC4(CCC(=O)NC4=O)C3)ccc21` (stereo not shown) [Example 52, 2-(1-acetylindoline-5-carbonyl)-2,7-diazaspiro[4.5] decane-6,8-dione] reads 7.39; that for `CC(C)(C)OC(=O)Nc1nc2cc(C(=O)N3CCC4(CCC(=O)NC4=O)C3)ccc2s1` (stereo not shown) [Example 53, tert-butyl (5-(6,8-dioxo-2,7-diazaspiro[4.5]decane-2-carbonyl)benzo[d]thiazol-2-yl)carbamate], 8.22.
The result for `CC(C)(C)OC(=O)Nc1nc2ccc(C(=O)N3CCC4(CCC(=O)NC4=O)C3)cc2s1` (stereo not shown) [Example 54, tert-butyl (6-(6,8-dioxo-2,7-diazaspiro[4.5]decane-2-carbonyl)benzo[d]thiazol-2-yl)carbamate] reads 8.40.
Regarding `Nc1nc2ccc(C(=O)N3CCC4(CCC(=O)NC4=O)C3)cc2s1` (stereo not shown) [Example 55, 2-(2-aminobenzo [d]thiazole-6-carbonyl)-2,7-diazaspiro [4.5]decane-6,8-dione], the pKd was 7.59.
As for `O=C1NC(=O)C2(CCN(C(=O)[C@H]3CCCc4ccccc43)CC2)N1` [Example 58, (S)-8-(1,2,3,4-tetrahydronaphthalene-1-carbonyl)-1,3,8-triazaspiro[4.5]decane-2,4-dione], the figure is 8.40; as for `O=C1NC(=O)C2(CCN(C(=O)[C@@H]3CCCc4ccccc43)CC2)N1` [Example 59, (R)-8-(1,2,3,4-tetrahydronaphthalene-1-carbonyl)-1,3,8-triazaspiro[4.5]decane-2,4-dione], 8.30; as for `O=C1NC(=O)C2(CCN(C(=O)c3ccccc3)CC2)N1` [Example 60, 8-benzoyl-1,3,8-triazaspiro[4.5]decane-2,4-dione], 8.70.
